Measured values published in patent US20060235012A1, “Carboline and betacarboline derivatives for use as hdac enzyme inhibitors” (Chroma Therapeutics Limited, priority 2003, published 2006).

Each compound was assayed against histone deacetylase activity (HeLa nuclear extract) (assay: HDAC fluorescent activity assay (Biomol Fluor de Lys), HeLa nuclear extract). Settings: HeLa nuclear extract as HDAC source; Fluor de Lys substrate; IC50 range; read-out: Inhibitor Activity versus HDAC.
Type: biochemical
Protocol: The ability of compounds of Examples 1 to 17 to inhibit histone deacetylase activities was measured using the commercially available HDAC fluorescent activity assay from Biomol. In brief, the Fluor de Lys™ substrate, a lysine with an epsilon-amino acetylation, is incubated with the source of histone deacetylase activity (HeLa nuclear extract) in the presence or absence of inhibitor. Deacetylation of the substrate sensitises the substrate to Fluor de Lys™ developer, which generates a fluorophore. Thus, incubation of the substrate with a source of HDAC activity results in an increase in signal that is diminished in the presence of an HDAC inhibitor.
Data are expressed as a percentage of the control, measured in the absence of inhibitor, with background signal being subtracted from all samples, as follows:— % activity=((S^i−B)/(S^o−B))×100 where S^i is the signal in the presence of substrate, enzyme and inhibitor, S^o is the signal in the presence of substrate, enzyme and the vehicle in which the inhibitor is dissolved, and B is the background signal measured in the absence of enzyme.
IC50 values were determined by non-linear regression analysis, after fitting the results of eight data points to the equation for sigmoidal dose response with variable slope (% activity against log concentration of compound), using Graphpad Prism software.
Histone deacetylase activity from crude nuclear extract derived from HeLa cells was used for screening. The preparation, purchased from 4C (Seneffe, Belgium), was prepared from HeLa cells harvested whilst in exponential growth phase. The nuclear extract is prepared according to Dignam J D 1983 Nucl. Acid. Res. 11, 1475-1489, snap frozen in liquid nitrogen and stored at −80° C. The final buffer composition was 20 mM Hepes, 100 mM KCl, 0.2 mM EDTA, 0.5 mM DTT, 0.2 mM PMSF and 20% (v/v) glycerol.

| Compound | IC50 [nM] |
| --- | --- |
| COc1ccc2[nH]c3c(c2c1)CCN(C(=O)CCCCCCCC(=O)NO)C3 [Example 7] | < 330 |
| O=C(CCCCCC(=O)N1CCc2c([nH]c3ccccc23)C1C(F)(F)F)NO (stereo not shown) [Example 8] | 330 to 1000 |
| O=C(CCCCCCC(=O)N1CCc2c([nH]c3ccccc23)C1C(F)(F)F)NO (stereo not shown) [Example 9] | < 330 |
| O=C(CCCCCCCC(=O)N1CCc2c([nH]c3ccccc23)C1C(F)(F)F)NO (stereo not shown) [Example 10] | < 330 |
| COC(=O)[C@H]1Cc2c([nH]c3ccccc23)CN1C(=O)CCCCCC(=O)NO [Example 11] | 330 to 1000 |
| COC(=O)[C@H]1Cc2c([nH]c3ccccc23)CN1C(=O)CCCCCCCC(=O)NO [Example 12] | 330 to 1000 |
| O=C(CCCCCC(=O)N1CCc2c([nH]c3ccccc23)C12CCCCC2)NO [Example 13] | 330 to 1000 |
| O=C(CCCCCCC(=O)N1CCc2c([nH]c3ccccc23)C12CCCCC2)NO [Example 14] | < 330 |
| O=C(CCCCCC(=O)N1Cc2[nH]c3ccccc3c2C[C@@H]1C(=O)O)NO [Example 15] | 330 to 1000 |
| O=C(CCCCCCC(=O)N1Cc2[nH]c3ccccc3c2C[C@@H]1C(=O)O)NO [Example 16] | < 330 |
| O=C(CCCCCCCC(=O)N1Cc2[nH]c3ccccc3c2C[C@@H]1C(=O)O)NO [Example 17] | 330 to 1000 |

More lines, now with the values ahead:

| IC50 [nM] | Compound |
| --- | --- |
| < 330 | O=C(CCCCCC(=O)N1CCc2c([nH]c3ccccc23)C1)NO [Example 2] |
| < 330 | COc1ccc2[nH]c3c(c2c1)CCN(C(=O)CCCCCCC(=O)NO)C3 [Example 3] |
| < 330 | COC(=O)[C@H]1Cc2c([nH]c3ccccc23)CN1C(=O)CCCCCCC(=O)NO [Example 4] |
| < 330 | O=C(CCCCCCCC(=O)N1CCc2c([nH]c3ccccc23)C1)NO [Example 5] |
| < 330 | COc1ccc2[nH]c3c(c2c1)CCN(C(=O)CCCCCC(=O)NO)C3 [Example 6] |
